Assay results reported in patent publication US6515124B2, “Dehydroamino acids” (Hoffman-La Roche Inc., priority 2000, dated 2003).

Assays:
[1] = molecular target: T1, LFA-1 binding to immobilized ICAM-1 (Homo sapiens, UniProt P05107+P20701); assay: LFA-1/ICAM-1 Protein-Protein Assay (solid-phase ELISA); conditions: 5dICAM-Ig coated plates, membrane-bound LFA-1 from transfected 293 cells
T1 construct: made in house; host or cells: transfected 293 cells (LFA-1)
Description: LFA-1/ICAM-1 Protein-Protein Assay
LFA-1/ICAM-1 antagonist activity, defined as the ability to block LFA-1 binding to immobilized ICAM-1, was quantitated using a solid-phase ELISA. Typically, fusion protein consisting of the entire extracellular domain of human ICAM-1 and the Fc domain of human IgG (5dICAM-Ig) was coated onto 96-well microtiter plates (0.15 μg in 100 μL PBS) overnight at 4° C. The plates were then blocked with 150 μL of 1% BSA/1 mM MnCl2/0.14 M NaCl/20 mM HEPES, pH 7.2 for 1 h at 37° C. and washed 3 times (150 μL each) with Wash Buffer (50 mM Tris, pH 7.4/100 mM NaCl/1 mM MnCl2/0.05% Tween 20). Stock solutions (100 μM in 100% DMSO) of test compounds were diluted 50 fold with 150 μL of Binding Buffer (0.05% BSA/0.05% Tween 20/1 mM MnCl2/0.14 M NaCl/20 mM HEPES, pH 7.2) plus 10% DMSO. A series of 1:4 dilutions were performed to achieve a concentration range of 0.12 nM-2 μM. Fifty μL per well of each dilution was added to the ICAM-1 coated plates, followed by 50 μL per well of membrane-bound LFA-1 (280 ng/mL in Binding Buffer) derived from transfected 293 cells. The plates were shaken vigorously for 1 min (room temperature) and gently for 2 h (37° C.). After incubation, the plates were washed 3 times (150 μL each) with Wash Buffer. Mouse anti-human integrin β2 monoclonal antibody was added (100 μL/well, 1 μg/ml in Binding Buffer) and allowed to incubate for 1 h (37° C.) with gentle agitation. The plates were then washed 3 times with Wash Buffer. HRP-conjugated goat anti-mouse IgG (100 μL/well, 1:1500 dilution in Binding Buffer) was added to each well, followed by incubation for 1 h (37° C.) and concluded by three washes (150 μL each) with Wash Buffer. TMB solution (100 μL per well) was added for color development (10 min). The reaction was stopped by the addition of 100 μL of 1M H3PO4 to each well. The plates were then read at 450 nm.

[2] = test system: T lymphocyte proliferation (murine spleen cells); assay: Mixed Lymphocyte Reaction (MLR), one-way; type: cell-based, mice; conditions: C57B1/6 spleen cells with irradiated BALB/c spleen cells, tritiated thymidine incorporation, 3 days
Description: Mixed Lymphocyte Reaction (MLR)
Admixture of murine spleen cells from two different inbred strains of mice induces proliferation of T lymphocytes. The magnitude of T cell proliferation depends on the extent of disparity in the major histocompatibility antigens between the two strains. Splenic T lymphocytes from both strains proliferate due to alloantigen recognition, a process for which the interaction of ICAM-1 on antigen-presenting cells with LFA-1 on lymphocytes is necessary. The ability of antagonists to inhibit T lymphocyte proliferation following recognition of alloantigens was assessed in a one-way MLR, where cells from one strain were irradiated to permit measurement of the proliferative response of cells from the other strain. Spleen cells were washed three times in tissue culture medium (TCM; see below). Fifty microliters of a spleen cell suspension (prepared at 10×10^6 cells/ml in TCM) obtained from C57B1/6 mice were added to an equal number of lethally-irradiated (2000 rads) spleen cells obtained from BALB/c mice in a 96-well U-bottom tissue culture plate (Costar, 3799). One hundred microliters of serial dilutions of antagonists or TCM were added to the spleen cell mixture. The total volume in each well was 200 μL. TCM was RPMI1640 containing 10% heat-inactivated fetal bovine serum, […] L-glutamine, 100 Units/ml each of penicillin and streptomycin and 5×10^−5 M 2-mercaptoethanol. Dilutions of antagonists were prepared in TCM. Plates were incubated in 5% CO2 for 3 days. On the third day, 0.5 μCi of tritiated thymidine (10 μCi/mL) was added to all the wells. Cells were harvested 6 h later on a 96-well plate harvester and the amount of tritiated thymidine incorporated was assessed in a liquid scintillation counter.

[3] = Mus musculus, T-lymphocyte, light or radiation study, 72 h

T1 sequence (P20701 26-1170): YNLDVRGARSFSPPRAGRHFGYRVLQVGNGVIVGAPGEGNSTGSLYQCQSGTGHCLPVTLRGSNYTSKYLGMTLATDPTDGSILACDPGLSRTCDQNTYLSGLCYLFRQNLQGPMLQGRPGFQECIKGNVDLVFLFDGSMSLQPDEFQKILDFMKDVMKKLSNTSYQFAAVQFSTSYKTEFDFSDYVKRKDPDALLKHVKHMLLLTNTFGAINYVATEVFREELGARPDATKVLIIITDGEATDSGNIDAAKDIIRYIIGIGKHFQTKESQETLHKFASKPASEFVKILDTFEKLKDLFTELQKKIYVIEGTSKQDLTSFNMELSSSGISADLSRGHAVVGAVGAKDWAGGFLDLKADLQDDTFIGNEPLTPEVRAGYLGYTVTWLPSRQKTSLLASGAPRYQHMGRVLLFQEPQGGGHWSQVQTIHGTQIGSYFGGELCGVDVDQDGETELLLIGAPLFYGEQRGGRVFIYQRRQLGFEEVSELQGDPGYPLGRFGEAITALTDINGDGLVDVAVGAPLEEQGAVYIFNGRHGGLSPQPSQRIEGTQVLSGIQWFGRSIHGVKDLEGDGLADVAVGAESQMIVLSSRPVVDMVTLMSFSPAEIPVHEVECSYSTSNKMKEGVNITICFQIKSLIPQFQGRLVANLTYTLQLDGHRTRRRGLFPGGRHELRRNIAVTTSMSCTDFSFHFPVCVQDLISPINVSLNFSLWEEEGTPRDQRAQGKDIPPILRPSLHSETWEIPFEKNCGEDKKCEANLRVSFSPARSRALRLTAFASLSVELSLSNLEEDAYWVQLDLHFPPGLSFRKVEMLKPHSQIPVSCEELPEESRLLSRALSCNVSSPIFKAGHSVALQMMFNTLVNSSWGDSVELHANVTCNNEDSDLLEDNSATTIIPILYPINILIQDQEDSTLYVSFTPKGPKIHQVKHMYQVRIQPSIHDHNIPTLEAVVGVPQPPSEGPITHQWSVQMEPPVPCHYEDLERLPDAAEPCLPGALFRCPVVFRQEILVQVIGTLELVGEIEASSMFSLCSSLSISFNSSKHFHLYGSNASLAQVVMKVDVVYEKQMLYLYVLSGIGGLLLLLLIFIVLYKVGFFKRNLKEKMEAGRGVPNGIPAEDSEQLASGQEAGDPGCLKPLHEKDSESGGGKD
T1 sequence (P05107 23-769): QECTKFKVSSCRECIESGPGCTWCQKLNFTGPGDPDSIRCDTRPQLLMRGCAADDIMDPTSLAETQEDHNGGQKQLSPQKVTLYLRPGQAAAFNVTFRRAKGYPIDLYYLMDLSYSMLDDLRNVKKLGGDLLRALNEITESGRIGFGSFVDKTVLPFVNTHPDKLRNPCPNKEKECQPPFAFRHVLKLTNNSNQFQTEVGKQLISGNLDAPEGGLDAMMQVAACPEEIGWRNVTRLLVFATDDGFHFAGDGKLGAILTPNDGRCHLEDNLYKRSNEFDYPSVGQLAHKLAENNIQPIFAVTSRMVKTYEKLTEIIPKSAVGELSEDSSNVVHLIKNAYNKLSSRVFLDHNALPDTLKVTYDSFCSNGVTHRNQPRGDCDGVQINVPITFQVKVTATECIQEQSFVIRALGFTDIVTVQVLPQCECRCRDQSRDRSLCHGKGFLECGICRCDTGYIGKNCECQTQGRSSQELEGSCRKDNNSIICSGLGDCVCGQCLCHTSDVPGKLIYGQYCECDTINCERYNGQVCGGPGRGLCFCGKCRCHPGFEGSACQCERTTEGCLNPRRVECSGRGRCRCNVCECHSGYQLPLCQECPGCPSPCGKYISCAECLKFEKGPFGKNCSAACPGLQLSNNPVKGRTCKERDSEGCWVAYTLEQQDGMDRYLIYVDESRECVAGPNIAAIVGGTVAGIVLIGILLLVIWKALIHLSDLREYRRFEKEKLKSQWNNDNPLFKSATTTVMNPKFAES

| SMILES | IC50 [1] | IC50 [2, 3] | other results |
| --- | --- | --- | --- |
| Cc1nc(C)c(/C=C(\NC(=O)c2c(C)cc(C(=O)NCc3cccc(O)c3)cc2C)C(=O)O)s1 [Example 248] | 3.96 nM | 24000 nM |  |
| Cc1nc(C)c(/C=C(\NC(=O)c2ccc(C(=O)NCc3cccc4[nH]ccc34)cc2Br)C(=O)O)s1 [Example 249] | 5.78 nM | 16000 nM |  |
| Cc1nc(C)c(/C=C(\NC(=O)c2c(C)cc(C(=O)N[C@H](C)c3cccc4ccccc34)cc2C)C(=O)O)s1 [Example 251] | 20.5 nM | 20000 nM |  |
| C[C@@H](NC(=O)c1cc(Cl)c(C(=O)N/C(=C\c2cnc3ccccc3c2)C(=O)O)c(Cl)c1)c1cccc2ccccc12 [Example 252] | 2.68 nM | 2500 nM |  |
| Cc1cc(C(=O)NCc2cc(F)cc(F)c2)cc(C)c1C(=O)N/C(=C\c1cnc2ccccc2c1)C(=O)O [Example 253] | 6.54 nM | 8100 nM |  |
| Cc1nc(C)c(/C=C(\NC(=O)c2c(C)cc(C(=O)NCc3cc(F)cc(F)c3)cc2C)C(=O)O)s1 [Example 254] | 110 nM | 95000 nM |  |
| O=C(O)/C(=C/c1cnc2ccccc2c1)NC(=O)c1ccc(C(=O)NCc2cccc3[nH]ccc23)cc1Br [Example 255] | 5.82 nM | 14800 nM |  |
| Cc1nc(C)c(/C=C(\NC(=O)c2ccc(C(=O)NCc3cccc(O)c3)cc2Br)C(=O)O)s1 [Example 258] | 2.33 nM | 2050 nM | IC50 ([1]; mono sodium salt): 2.01 nM; IC50 ([2]; listed as 258^b): 2740 nM |
| CN(C)c1ncc(/C=C(\NC(=O)c2ccc(C(=O)NCc3cccc(O)c3)cc2Br)C(=O)O)s1 [Example 260] | 0.77 nM | 3000 nM |  |
| O=C(O)/C(=C/c1cnc(N2CCOCC2)s1)NC(=O)c1ccc(C(=O)NCc2cccc(O)c2)cc1Br [Example 261] | 39.6 nM | 26000 nM |  |
| O=C(O)/C(=C/c1ccc2ncsc2c1)NC(=O)c1ccc(C(=O)NCc2cccc3[nH]ccc23)cc1Br [Example 267] | 6.37 nM | 6380 nM |  |
| O=C(O)/C(=C/c1cccc2ccccc12)NC(=O)c1ccc(C(=O)NCc2cccc(O)c2)cc1Br [Example 270] | 20.3 nM | 20000 nM |  |
| O=C(O)/C(=C/c1cnc[nH]1)NC(=O)c1ccc(C(=O)NCc2cccc(O)c2)cc1Br [Example 278] | 2 nM | 1450 nM |  |
| Cc1noc(C)c1/C=C(\NC(=O)c1ccc(C(=O)NCc2cccc(O)c2)cc1Br)C(=O)O [Example 281] | 244 nM | 14500 nM |  |
| O=C(O)/C(=C/c1ccc2[nH]nnc2c1)NC(=O)c1ccc(C(=O)NCc2cccc(O)c2)cc1Br [Example 285] |  | 235 nM | IC50 ([1]; disodium salt): 1.14 nM; IC50 ([1]; trifluoroacetate salt): 0.34 nM; IC50 ([2]; listed as 285^c): 190 nM |
| O=C(O)/C(=C/c1ccc2[nH]nnc2c1)NC(=O)c1ccc(C(=O)NCc2cccc3[nH]ccc23)cc1Br [Example 286] | 0.74 nM | 1200 nM |  |

Further lines, with some results ahead:

| IC50 [1] | SMILES | IC50 [2, 3] | other results |
| --- | --- | --- | --- |
| 2 nM | O=C(O)/C(=C/c1ccc2nsnc2c1)NC(=O)c1ccc(C(=O)NCc2cccc(O)c2)cc1Cl [Example 247] | 5150 nM |  |
| 6.86 nM | Cc1nnsc1/C=C(\NC(=O)c1ccc(C(=O)NCc2cccc(O)c2)cc1Br)C(=O)O [Example 263] | 2850 nM |  |
| 4.2 nM | O=C(O)/C(=C/c1csc2ccccc12)NC(=O)c1ccc(C(=O)NCc2cccc(O)c2)cc1Br [Example 264] | 13000 nM |  |
| 2.7 nM | O=C(O)/C(=C/c1cnc(Cl)s1)NC(=O)c1ccc(C(=O)NCc2cccc(O)c2)cc1Cl [Example 266] | 9000 nM |  |
| 10.6 nM | O=C(O)/C(=C/c1nccs1)NC(=O)c1ccc(C(=O)NCc2cccc(O)c2)cc1Br [Example 268, (Z)-2-[[2-Bromo-4-[[(3-hydroxybenzyl)amino]carbonyl]benzoyl]amino]-3-(thiazol-2-yl)propenoic Acid] | 9000 nM |  |
| 4.31 nM | O=C(O)/C(=C/c1ccccc1)NC(=O)c1ccc(C(=O)NCc2cccc(O)c2)cc1Br [Example 269] | 2200 nM |  |
| 1.4 nM | O=C(O)/C(=C/c1ccccc1O)NC(=O)c1ccc(C(=O)NCc2cccc(O)c2)cc1Br [Example 272] | 1500 nM |  |
| 5.4 nM | O=C(O)/C(=C/c1ccccn1)NC(=O)c1ccc(C(=O)NCc2cccc(O)c2)cc1Br [Example 273] | 1400 nM |  |
| 0.62 nM | O=C(O)/C(=C/c1ccc2ccccc2c1)NC(=O)c1ccc(C(=O)NCc2cccc(O)c2)cc1Br [Example 274] | 1650 nM |  |
| 0.53 nM | O=C(O)/C(=C/c1cnc2ccccc2c1)NC(=O)c1ccc(C(=O)NCc2cccc(O)c2)cc1Br [Example 277] | 356 nM |  |
| 6.2 nM | O=C(O)/C(=C/c1cccnc1)NC(=O)c1ccc(C(=O)NCc2cccc(O)c2)cc1Br [Example 279] | 1300 nM |  |
| 5 nM | O=C(O)/C(=C/c1ccncc1)NC(=O)c1ccc(C(=O)NCc2cccc(O)c2)cc1Br [Example 280] | 860 nM |  |
| 4.46 nM | O=C(O)/C(=C/c1ccccc1)NC(=O)c1ccc(C(=O)NCc2cccc(O)c2)cc1Cl [Example 282] | 1900 nM |  |
| 0.79 nM | O=C(O)/C(=C/c1cnc2ccccc2c1)NC(=O)c1ccc(C(=O)NCc2cccc(O)c2)cc1Cl [Example 283] | 370 nM |  |
| 0.65 nM | Nc1ncc(/C=C(\NC(=O)c2ccc(C(=O)NCc3cccc(O)c3)cc2Cl)C(=O)O)s1 [Example 287] | 1400 nM |  |
| 13.4 nM | O=C(O)/C(=C/c1nc[nH]n1)NC(=O)c1ccc(C(=O)NCc2cccc(O)c2)cc1Br [Example 290, (Z)-2-[[2-Bromo-4-[[(3-hydroxybenzyl)amino]carbonyl]benzoyl]amino]-3-(1,2,4triazol-3-yl)propenoic Acid] | 1300 nM |  |
| 0.4 nM | Cc1cc(C(=O)NCc2cccc(O)c2)cc(Cl)c1C(=O)N/C(=C\c1ccc2[nH]nnc2c1)C(=O)O [Example 291, (Z)-3-(1H-Benzotriazol-5-yl)-2-[[2-chloro-4-[[(3-hydroxybenzyl)amino]carbonyl]-6-methylbenzoyl]amino]propenoic Acid] | 515 nM |  |
| 0.54 nM | Cc1cc(C(=O)NCc2cccc(O)c2)cc(Cl)c1C(=O)N/C(=C\c1cnc2ccccc2c1)C(=O)O [Example 292, (Z)-2-[[2-Chloro-4-[[(3-hydroxybenzyl)amino]carbonyl]-6-methylbenzoyl]amino]-3-(quinolin-3-yl)propenoic Acid] | 925 nM |  |
| 1.29 nM | Cc1cc(C(=O)NCc2cccc(O)c2)cc(Cl)c1C(=O)N/C(=C\c1ccccc1)C(=O)O [Example 293, (Z)-2-[[2-Chloro-4-[[(3-hydroxybenzyl)amino]carbonyl]-6-methylbenzoyl]amino]-3-phenylpropenoic Acid] | 7100 nM |  |
| 2.38 nM | O=C(O)/C(=C/c1cnc2ccccc2c1)NC(=O)c1ccc(C(=O)CCc2cccc(O)c2)cc1Cl [Example 294, (Z)-2-[[2-Chloro-4-[3-(3-hydroxyphenyl)-1-oxopropan-1-yl]benzoyl]amino]-3-(quinolin-3-yl)propenoic Acid] | 13000 nM |  |
